# Measured values published in patent US20070026433A1, “Epitope testing using soluble HLA” (priority 2001, published 2007).
# Like-named read-outs stand apart in the source and are kept apart here. Ends that are not written are not given here. Peptide text beside a SMILES is read from it. * marks the point of attachment. FITC = O=C1OC2(c3ccc(O)cc3Oc3cc(O)ccc32)c2ccc(NC(=S)*)cc21; 125I = [125I]*
# How the values were obtained:
# sHLA-A*0201 [1] = biological target: T1, sHLA-A*0201 (Homo sapiens, UniProt P04439, D140Y/D185E/D98H/E176V/E277Q/G131W/G231S/I119V/I121R/I166T/I218V/L300P/L318F/N151K/N90K/P208A/P217A/Q86G/Q94H/R138H/R169H/T345S); test: Epitope screening at a threshold concentration of 80 μM (FP competition); conditions: 80 μM peptide, 50 μg/mL sHLA-A*0201, 1 nM P5, β2m 2117 nM
# sHLA-A*0201 [2] = biological target: T1, sHLA-A*0201; test: biochemical; conditions: for kon: read-out: association rate constants kon
# HLA-A*0201 = HLA-A*0201 (Homo sapiens, UniProt P04439, D140Y/D185E/D98H/E176V/E277Q/G131W/G231S/I119V/I121R/I166T/I218V/L300P/L318F/N151K/N90K/P208A/P217A/Q86G/Q94H/R138H/R169H/T345S); conditions: cited from earlier work; for IC50: read-out: cell-free systems (^125I) IC50, published values, 125I peptide tracer
# sHLA-A*0201 [3] = biological target: T1, sHLA-A*0201; test: biochemical; format: binding; parameters: contained the leader peptide, as well as the α1, α2, and α3 coding domains of the HLA heavy chain; made in house; β2m from Fitzgerald Industries International
# A*1102 = biological target: T2, A*1102 (Homo sapiens, UniProt P04439, A114D/D185E/E176A/E43K/F33Y/L180Q/S129P/T187R); test: Multiple-specificity screening of FITC-labeled peptides (supertyping, FP); format: binding; conditions: 2 nM peptide, 100 μg/ml activated sHLA
# T2 construct: contained the leader peptide, as well as the α1, α2, and α3 coding domains of the HLA heavy chain; made in house
# Description: (§1) Multiple-specificity screening of FITC-labeled peptides: To approach the problem of supertype analysis, a novel, state-of-the-art screening assay was developed that utilizes high quality soluble HLA and the technique of fluorescence polarization (FP). This assay combination allows the direct measurement of the ratio between free and bound labeled ligand in solution without any separation steps. The technique of FP is based on the principal that if a fluorescent-labeled peptide binds to the sHLA molecule of higher molecular weight, polarization values will increase due to the slower molecular rotation of the bound probe.
# (§2) To elaborate peptide cross-reactivity among MHC class I molecules, a panel of 53 single-specificity sHLA receptors was screened for their binding capacity towards a series of fluorescent-labeled peptide ligands. During the process, each peptide candidate (2 nM) was incubated with 100 μg/ml of activated sHLA and peptide/MHC interaction was monitored over time on the Analyst™ AD Assay Detection System (Molecular Devices; Sunnyvale, Calif.). For optimal signal output, b2-microglobulin was added in 2× molar excess of the used sHLA concentration. For all preparations, 1× BGG/PBS was used as buffer. The use of appropriate controls allowed accurate estimation of specific polarization. […]
# [4] = test system: alleles listed for the B27 supertype; test: as above; format: binding, human; conditions: 2 nM peptide, 100 μg/ml activated sHLA
# Description: as §1, §2
# sHLA-A*0201 [5] = biological target: T1, sHLA-A*0201; test: Multiple specificity screening by FP; format: binding; parameters: contained the leader peptide, as well as the α1, α2, and α3 coding domains of the HLA heavy chain; made in house; β2m from Fitzgerald Industries International; conditions: 10 nM peptide, 100 μg/mL activated sHLA
# Description: Multiple Specificity Screening. To determine the specificity for sHLA-A*0201 as well as potential cross-reactivity to other sHLA alleles, 48 different sHLA alleles were screened for binding with the A*0201 pFITC constructs (FIG. 15). For screening purposes, each peptide candidate (10 nM) was incubated with 100 μg/mL activated sHLA, and the peptide/HLA interaction was monitored over time. As expected, no significant binding was detected to any of the B-alleles tested (FIG. 15B), whereas a high binding affinity was observed between sHLA-A*0201 and the pFITC candidates. An exception was pFITC P3 (FIG. 15A). […] The significant decrease in association kinetics recorded after 0.8 h seems to imply that the HLA class I molecule is not stabilized following exposure to this peptide, irrespective of whether it attempted to bind. […] Thus, modification of the residue at the P4 nonanchor position of pFITC P3 may not affect the specificity and association kinetics of peptide binding but rather seems to affect the stability of the class I peptide interaction.
# sHLA-A*0201 [6] = biological target: T1, sHLA-A*0201; format: binding; parameters: contained the leader peptide, as well as the α1, α2, and α3 coding domains of the HLA heavy chain; made in house; β2m from Fitzgerald Industries International; conditions: 10 nM pFITC, sHLA-A*0201 titration
# [7] = cited from earlier work
# [8] = read-out: dissociation rate constants
# [9] = read-out: dissociation rate constants koff
# [10] = 50 μg/mL (1059 nM) sHLA-A*0201, β2m 2117 nM, 1 nM FITC-labeled reference peptide P5, read-out: StD comp assay (FP) IC50
compound,measurement,setting,value
LVMAPRTVL (listed as Homo sapiens),inhibition at 80 μM,sHLA-A*0201 [1],minor
"CC(C)C[C@H](N)C(=O)N[C@H](C(=O)N[C@@H](Cc1ccccc1)C(=O)NCC(=O)N[C@@H](CCCCNC(=S)Nc1ccc2c(c1)C(=O)OC21c2ccc(O)cc2Oc2cc(O)ccc21)C(=O)N[C@@H](CCC(=O)O)C(=O)N[C@H](C(=O)N[C@H](C(=O)N[C@@H](CCC(=O)O)C(=O)N[C@H](C(=O)O)C(C)C)C(C)C)C(C)C)C(C)C [P4, L V F G K E V V E V] (H-LVFGK(FITC)EVVEV-OH)",kon,sHLA-A*0201 [2],9900 M⁻¹ s⁻¹
same,koff,sHLA-A*0201 [2]; [8],0.00019 to 0.00043 s⁻¹
same,koff,sHLA-A*0201 [2]; [9],0.000284 s⁻¹
CC[C@H](C)[C@H](NC(=O)[C@H](Cc1c[nH]c2ccccc12)NC(=O)[C@@H](NC(=O)CNC(=O)[C@H](Cc1ccccc1)NC(=O)[C@H](CO)NC(=O)[C@@H](NC(=O)[C@H](CC(C)C)NC(=O)[C@@H](N)Cc1ccc(O)cc1)C(C)C)C(C)C)C(=O)O,IC50,HLA-A*0201,1.9 nM
KLGEFYNQMM,IC50,sHLA-A*0201 [3]; [10],2820 nM
same,IC50,sHLA-A*0201 [3]; IC50 with different pFITC reference peptides,2480 to 10500 nM
same,IC50,sHLA-A*0201 [3]; IC50 within the different tracer systems,2480 to 10500 nM
DLVHFASPL,IC50,HLA-A*0201,16700 nM
same,IC50,sHLA-A*0201 [3]; [10],366000 nM
GRAFVTIKK,binding capacity,A*1102,high A*1102 binding capacity
same,binding,[4],did not bind
CSCC[C@H](NC(=O)[C@H](CC(C)C)NC(=O)[C@H](C)N)C(=O)N[C@@H](CC(=O)O)C(=O)N[C@@H](CCCCN)C(=O)N[C@H](C(=O)N[C@@H](CC(C)C)C(=O)N[C@@H](CCCCNC(=S)Nc1ccc2c(c1)C(=O)OC21c2ccc(O)cc2Oc2cc(O)ccc21)C(=O)N[C@H](C(=O)O)C(C)C)C(C)C [P5],kon,sHLA-A*0201 [2],86800 M⁻¹ s⁻¹
same,koff,sHLA-A*0201 [2]; [8],0.00019 to 0.00043 s⁻¹
same,koff,sHLA-A*0201 [2]; [9],0.000188 s⁻¹
"FLPSDY(^125I)FPSV (FLPSDY(125I)FPSV; listed as Homo sapiens) [iodinated molecule of earlier publications (Sette et al., 1994a)]",Kd,"HLA-A*0201; Sette et al., 1994a, read-out: affinity of the iodinated molecule in earlier publications",15.5 nM
"N L S K L S L D V (NLSKLSLDV; also: FITC label, position not given here; listed as Homo sapiens) [P3]",binding,sHLA-A*0201 [5],failed to attain a higher polarization level compared to the other candidates
same,saturation curve / stable complex formation with sHLA-A*0201,sHLA-A*0201 [6],not able to form stable complexes with sHLA-A*0201
fluorescein isothiocyanate [FITC],pKa,[7],approximately 6.5
YLLPAIVHI,IC50,HLA-A*0201,18 nM
same,IC50,sHLA-A*0201 [3]; [10],510 nM
